Results on 23 compounds are retold here after patent US8912216B2, “Hetaryl-[1,8]naphthyridine derivatives” (Merck Patent GmbH, priority 2010, dated 2014).

Where two headings read alike, the source gives them in different places. Some results are limits rather than exact numbers.

The subject of assay [1] is TGF-beta-induced phosphorylation of Smad2 and Smad3 in Mv1-Lu cells. The assay can be described thus: Inhibition of Smad2/3 phosphorylation in Mv1Lu cells (Example 35A). The format is cell-based, mink Mustela vison. The conditions noted are these: Neogale vison, read-out: TβR activity (Example 35A). Here is the method: Inhibition of Smad2/3 Phosphorylation in Mv1Lu Cells by TGF-bta Receptor I Kinase Inhibitors
This assay was used to determine the inhibitory potency of compounds on TGF-beta-induced phosphorylation of Smad2 (Ser465/467) and Smad3 (Ser423/425). Mv1-Lu cells (lung epithelial cell line from mink Mustela vison; ATCC number: CCL-64) were seeded in DMEM (Invitrogen) supplemented with 10% fetal bovine serum (Pan Biotech) at a defined cell density in 24-well or 96-well plates (24-well plate: 1.5×10^5 cells per well; 96-well plate: 4×10^4 cells per well). Cell cultures were incubated in DMEM at 37° C. and 10% CO2. On the next day, the medium was replaced and cells were serum-starved for 16-20 hours. The following day, serial dilutions of compounds were added to the wells, pre-incubated for 1.5 hrs before recombinant TGF-beta 1 ligand (final concentration 5 ng/ml; R&D systems) was added. After one hour of ligand stimulation, lysates were prepared and analyzed using an enzyme-linked immunosorbent assay kit (PathScan Phospho-Smad2 Kit, Cell Signaling Technologies). The ELISA detects phosphorylated Smad2 as well as phosphorylated Smad3 with the phospho-specific antibody. TGF-beta stimulated cells and unstimulated cells served as positive and negative controls (100% and background control). The concentration of the vehicle DMSO was kept constant at 0.2% (v/v) in all wells. Dose-response relationships were fitted using curve fitting algorithms of the RS1 statistics software package (Brooks Automation Inc. RS/1—Statistical Tools Handbook. Release 6.2) to determine the concentration at which half-maximal inhibition (IC50) of Smad2/3 phosphorylation was achieved.

In assay [2] the target is T1, GST-ALK5 (Homo sapiens, UniProt P36897).
T1 sequence (P36897 34-503): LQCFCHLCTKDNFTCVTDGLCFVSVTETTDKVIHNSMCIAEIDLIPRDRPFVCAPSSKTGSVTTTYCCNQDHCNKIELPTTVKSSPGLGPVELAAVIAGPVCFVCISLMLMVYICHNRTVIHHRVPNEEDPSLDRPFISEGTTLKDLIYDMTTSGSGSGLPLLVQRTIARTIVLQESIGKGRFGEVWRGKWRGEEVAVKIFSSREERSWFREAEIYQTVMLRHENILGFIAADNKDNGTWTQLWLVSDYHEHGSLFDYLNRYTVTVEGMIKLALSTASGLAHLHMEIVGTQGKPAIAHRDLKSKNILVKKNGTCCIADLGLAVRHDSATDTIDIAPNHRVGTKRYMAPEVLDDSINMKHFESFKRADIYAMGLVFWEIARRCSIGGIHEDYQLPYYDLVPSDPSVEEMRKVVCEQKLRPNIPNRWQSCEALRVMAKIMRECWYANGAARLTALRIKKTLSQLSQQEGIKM
The assay can be described thus: In-vitro (enzyme) kinase assay, 384-well flashplate (Example 36). Format: biochemical. The conditions noted are these: read-out: TβR activity (Example 36). Here is the method:
In-vitro (Enzyme) Assay for Determination of the Efficacy of Inhibitors of the Inhibition of TGF-beta-Mediated Effects
The kinase assay was carried out as 384-well flashplate assay. 31.2 nM of GST-ALK5, 439 nM of GST-SMAD2 and 3 mM of ATP (with 0.3 μCi of ^33P-ATP/well) were incubated in a total volume of 35 μl (20 mM of HEPES, 10 mM of MgCl2, 5 mM of MnCl2, 1 mM of DTT, 0.1 of BSA, pH 7.4) without or with test substance (5-10 concentrations) at 30° C. for 45 min. The reaction was stopped using 25 μl of 200 mM EDTA solution, filtered with suction at room temperature after 30 min, and the wells were washed with 3 times 100 μl of 0.9% NaCl solution. Radioactivity was measured in the TopCount. The IC50 values were calculated using RS1.

Setting [3] is: GST-ALK5, GST-SMAD2 substrate, 3 mM ATP, 30° C., 45 min.
Setting [4] is: Mv1-Lu cells, TGF-beta 1 5 ng/ml, phospho-Smad2/3 ELISA.

Turning to `CN1CCC(n2cc(-c3cncc(-c4cc(-c5cc(Cl)ccc5F)nc5ncccc45)c3)cn2)CC1` [compound 25, 2-(5-chloro-2-fluoro-phenyl)-4-{5-[1-(1-methyl-piperidin-4-yl)-1H-pyrazol-4-yl]-pyridin-3-yl}-[1,8]naphthyridine], the IC50 in assay [1] and in assay [2] (setting [3]) was less than 100 nM in each case. Consider `CN1CCN(c2cc(-c3cncc(-c4cc(-c5cc(Cl)ccc5F)nc5ncccc45)c3)ncn2)CC1` [compound 119, 2-(5-Chloro-2-fluoro-phenyl)-4-{5-[6-(4-methyl-piperazin-1-yl)-pyrimidin-4-yl]-pyridin-3-yl}-[1,8]naphthyridine], for which the IC50 in assay [1] (setting [4]) and in assay [2] (setting [3]) was 100 to 1000 nM each time. For the compound `CCOC(=O)c1cccc(-c2cncc(-c3cc(-c4cc(Cl)ccc4F)nc4ncccc34)c2)n1` [compound 124, 5′-[2-(5-Chloro-2-fluoro-phenyl)-[1,8]naphthyridin-4-yl]-[2,3′]bipyridinyl-6-carboxylic acid ethyl ester], the IC50 in assay [1] (setting [4]) was in the range of 100 to 1000 nM; in assay [2] (setting [3]), 1000 to 10000 nM.

Turning to `Fc1ccc(Cl)cc1-c1cc(-c2cncc(-c3ccc(N4CCNCC4)cc3)c2)c2cccnc2n1` [compound 94, 2-(5-Chloro-2-fluoro-phenyl)-4-[5-(4-piperazin-1-yl-phenyl)-pyridin-3-yl]-[1,8]naphthyridine], the IC50 in assay [1] (setting [4]) and in assay [2] (setting [3]) was less than 100 nM throughout. On to `NS(=O)(=O)c1cccc(-c2cncc(-c3cc(-c4cc(Cl)ccc4F)nc4ncccc34)c2)c1` [compound 135, 3-{5-[2-(5-Chloro-2-fluoro-phenyl)-[1,8]naphthyridin-4-yl]-pyridin-3-yl}-benzene-sulfonamide], for which the IC50 in assay [1] (setting [4]) is 100 to 1000 nM; in assay [2] (setting [3]), less than 100 nM. Taken in the same sequence, the figures for `Cn1cc(-c2cncc(-c3cc(-c4cccc(C(F)(F)F)c4)nc4ncccc34)c2)cn1` [compound 14, 4-[5-(1-Methyl-1H-pyrazol-4-yl)-pyridin-3-yl]-2-(3-trifluoromethyl-phenyl)-[1,8]naphthyridine] were 1000 to 10000 nM and 100 to 1000 nM. Taken in the same sequence, the figures for `CN1CCC(n2cc(-c3cncc(-c4cc(-c5ccccc5F)nc5ncccc45)c3)cn2)C1` (stereo not drawn) [compound 59, 2-(2-Fluoro-phenyl)-4-{5-[1-(1-methyl-pyrrolidin-3-yl)-1H-pyrazol-4-yl]-pyridin-3-yl}-[1,8]naphthyridine] were less than 100 nM and less than 100 nM. Taken in the same sequence, the figures for `Fc1ccc(F)c(-c2cc(-c3cncc(-c4cnn(C5CCNCC5)c4)c3)c3cccnc3n2)c1` [compound 47, 2-(2,5-Difluoro-phenyl)-4-[5-(1-piperidin-4-yl-1H-pyrazol-4-yl)-pyridin-3-yl]-[1,8]naphthyridine] were less than 100 nM and less than 100 nM. Consider `CC(C)(C)OC(=O)Nc1cc(-c2cncc(-c3cc(-c4cc(Cl)ccc4F)nc4ncccc34)c2)ccn1` [compound 112, {5-[2-(5-Chloro-2-fluoro-phenyl) [1,8]naphthyridin-4-yl]-[3,4′]bipyridinyl-2′-yl}-carbamic acid tert-butyl ester], for which the IC50 in assay [1] (setting [4]) and in assay [2] (setting [3]) was 100 to 1000 nM throughout. On to `Cn1cc(-c2cncc(-c3cc(-c4cccc(Cl)c4)nc4ncccc34)c2)cn1` [compound 9, 2-(3-Chloro-phenyl)-4-[5-(1-methyl-1H-pyrazol-4-yl)-pyridin-3-yl]-[1,8]naphthyridine], for which the IC50 in assay [1] (setting [4]) was in the range of 1000 to 10000 nM; in assay [2] (setting [3]), 100 to 1000 nM. Taken in the same sequence, the figures for `CN1CCc2cc(-c3cncc(-c4cc(-c5cc(Cl)ccc5F)nc5ncccc45)c3)ccc21` [compound 149, 2-(5-Chloro-2-fluoro-phenyl)-4-[5-(1-methyl-2,3-dihydro-1H-indol-5-yl)-pyridin-3-yl]-[1,8]naphthyridine] were less than 100 nM and 100 to 1000 nM. Taken in the same sequence, the figures for `Fc1ccc(Cl)cc1-c1cc(-c2cncc(-c3ccnc(N4CCNCC4)c3)c2)c2cccnc2n1` [compound 105, 2-(5-Chloro-2-fluoro-phenyl)-4-(2′-piperazin-1-yl-[3,4′]bipyridinyl-5-yl)-[1,8]naphthyridine] were less than 100 nM and less than 100 nM. Take `Cc1ccn(-c2cc(-c3cncc(Br)c3)c3cccnc3n2)n1` [4-(5-Bromo-pyridin-3-yl)-2-(3-methyl-pyrazol-1-yl)-[1,8]naphthyridine]: the IC50 in assay [1] (Table 2, intermediate, Smad2/3 phosphorylation in Mv1-Lu cells) was more than 10000 nM; in assay [2] (Table 2, intermediate, GST-ALK5 flashplate assay), more than 10000 nM. For `Fc1ccc(Cl)cc1-c1cc(-c2cnccc2-c2ccccc2)c2cccnc2n1` [compound 98, 2-(5-Chloro-2-fluoro-phenyl)-4-(4-phenyl-pyridin-3-yl)-[1,8]naphthyridine], the IC50 in assay [1] (setting [4]) and in assay [2] (setting [3]) was 1000 to 10000 nM in each case. Take `Fc1ccc(F)c(-c2cc(-c3cncc(-c4cccc(OCC5CCNCC5)c4)c3)c3cccnc3n2)c1` [compound 147, 2-(2,5-Difluoro-phenyl)-4-{5-[3-(piperidin-4-ylmethoxy)-phenyl]-pyridin-3-yl}-[1,8]naphthyridine]: the IC50 in assay [1] (setting [4]) lay in the range of 1000 to 10000 nM; in assay [2] (setting [3]), 100 to 1000 nM. `OCCn1cc(-c2cncc(-c3cc(-c4ccccc4F)nc4ncccc34)n2)cn1` [compound 83, 2-(4-{6-[2-(2-Fluoro-phenyl)-[1,8]naphthyridin-4-yl]-pyrazin-2-yl}-pyrazol-1-yl)-ethanol]: the IC50 in assay [1] (setting [4]) was 1000 to 10000 nM; in assay [2] (setting [3]), less than 100 nM. For the compound `OCCn1cc(-c2cncc(-c3cc(-c4ccccc4F)nc4ncccc34)c2)cn1` [compound 40, 2-(4-{5-[2-(2-fluoro-phenyl)-[1,8]naphthyridin-4-yl]-pyridin-3-yl}-pyrazol-1-yl)-ethanol], the IC50 in assay [1] (setting [4]) lay within 100 to 1000 nM. As for `Fc1ccc(Cl)cc1-c1cc(-c2cncc(-c3cn(CCN4CCOCC4)nn3)c2)c2cccnc2n1` [compound 42, 2-(5-chloro-2-fluoro-phenyl)-4-{5-[1-(2-morpholin-4-yl-ethyl)-1H-[1,2,3]triazol-4-yl]-pyridin-3-yl}-[1,8]naphthyridine], the IC50 in assay [1] (setting [4]) lay within 100 to 1000 nM. On the same count and under the same terms, the same measure for `Fc1ccccc1-c1cc(-c2cncc(-c3cnn(CCN4CCOCC4)c3)c2)c2cccnc2n1` [compound 41, 2-(2-Fluoro-phenyl)-4-{5-[1-(2-morpholin-4-yl-ethyl)-1H-pyrazol-4-yl]-pyridin-3-yl}-[1,8]naphthyridine]: 100 to 1000 nM.

As to `CN1CCC(c2nc(-c3cncc(-c4cc(-c5ccccc5F)nc5ncccc45)c3)no2)CC1` [compound 60, 2-(2-fluoro-phenyl)-4-{5-[5-(1-methyl-piperidin-4-yl)-[1,2,4]oxadiazol-3-yl]-pyridin-3-yl}-[1,8]naphthyridine], the IC50 in assay [2] (setting [3]) was 100 to 1000 nM. `Cn1nccc1-c1cncc(-c2cc(-c3ccccc3F)nc3ncccc23)c1` [compound 67, 2-(2-Fluoro-phenyl)-4-[5-(2-methyl-2H-pyrazol-3-yl)-pyridin-3-yl]-[1,8]naphthyridine]: the IC50 in assay [1] (setting [4]) is 1000 to 10000 nM. In the case of `CN1CCN(c2ccnc(-c3cncc(-c4cc(-c5ccccc5F)nc5ncccc45)c3)n2)CC1` [compound 70, 2-(2-fluoro-phenyl)-4-{5-[4-(4-methyl-piperazin-1-yl)-pyrimidin-2-yl]-pyridin-3-yl}-[1,8]naphthyridine], in assay [2] (setting [3]), the IC50 was in the range of 100 to 1000 nM.

For the compound `Cn1ccc(-c2cncc(-c3cc(-c4ccccc4F)nc4ncccc34)c2)n1` [compound 66, 2-(2-Fluoro-phenyl)-4-[5-(1-methyl-1H-pyrazol-3-yl)-pyridin-3-yl]-[1,8]naphthyridine], in assay [1] (setting [4]), the IC50 is 1000 to 10000 nM.
